Each block holds one compound with its values, some of them ahead of it.
System: 362531-283-R-J2-PDC complex spheroid viability
Experiment: Anticancer human tumor 362531-283-R-J2-PDC patient-derived colon adenocarcinoma cell line growth inhibition [RAS]
Settings: for IC50: curve of first compound; for viability, T/C: stronger effect = lower value
How it was run: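 Multi-cell-type spheroids: tumor cells plus HUVEC endothelial cells and mesenchymal stem cells. RAS-pathway inhibitors were combined with targeted agents, each dosed in half-log steps down from clinical Cmax, or from 10 microM when Cmax was unknown.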

[1] = second compound 0.00316 µM, first compound 0.0316 µM
[2] = second compound 0.00316 µM, first compound 0.1 µM
[3] = second compound 0.00316 µM, first compound 0.316 µM
[4] = second compound 0.00316 µM, first compound 1 µM
[5] = second compound 0.00316 µM, first compound 3.16 µM
[6] = second compound 0.00316 µM, first compound 10 µM
[7] = second compound 0.01 µM, first compound 0.0316 µM
[8] = second compound 0.01 µM, first compound 0.1 µM
[9] = second compound 0.01 µM, first compound 0.316 µM
[10] = second compound 0.01 µM, first compound 1 µM
[11] = second compound 0.01 µM, first compound 3.16 µM
[12] = second compound 0.01 µM, first compound 10 µM
[13] = second compound 0.0316 µM, first compound 0.0316 µM
[14] = second compound 0.0316 µM, first compound 0.1 µM
[15] = second compound 0.0316 µM, first compound 0.316 µM
[16] = second compound 0.0316 µM, first compound 1 µM
[17] = second compound 0.0316 µM, first compound 3.16 µM
[18] = second compound 0.0316 µM, first compound 10 µM
[19] = second compound 0.1 µM, first compound 0.0316 µM
[20] = second compound 0.1 µM, first compound 0.1 µM
[21] = second compound 0.1 µM, first compound 0.316 µM
[22] = second compound 0.1 µM, first compound 1 µM
[23] = second compound 0.1 µM, first compound 3.16 µM
[24] = second compound 0.1 µM, first compound 10 µM
[25] = second compound 0.316 µM, first compound 0.0316 µM
[26] = second compound 0.316 µM, first compound 0.1 µM
[27] = second compound 0.316 µM, first compound 0.316 µM
[28] = second compound 0.316 µM, first compound 1 µM
[29] = second compound 0.316 µM, first compound 3.16 µM
[30] = second compound 0.316 µM, first compound 10 µM
[31] = second compound 1 µM, first compound 0.0316 µM
[32] = second compound 1 µM, first compound 0.1 µM
[33] = second compound 1 µM, first compound 0.316 µM
[34] = second compound 1 µM, first compound 1 µM
[35] = second compound 1 µM, first compound 3.16 µM
[36] = second compound 1 µM, first compound 10 µM
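Note: spheroids exposed to the agents for 7 days before readout.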
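Throughout, for viability, T/C: luminescence viability as percent of DMSO vehicle control wells.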

IC50 (second compound 0.00316 µM): 206 nM
IC50 (second compound 0.01 µM): 207 nM
IC50 (second compound 0.0316 µM): 212 nM
IC50 (second compound 0.1 µM): 211 nM
IC50 (second compound 0.316 µM): 194 nM
IC50 (second compound 1 µM): 219 nM
SMILES: CC(=O)OC12COC1CC(O)C1(C)C(=O)C(O)C3=C(C)C(OC(=O)C(O)C(NC(=O)OC(C)(C)C)c4ccccc4)CC(O)(C(OC(=O)c4ccccc4)C21)C3(C)C (centres undefined) + C=CC(=O)N1CCN(c2nc(OCC3CCCN3C)nc3c(F)c(-c4nc(N)cc(C)c4C(F)(F)F)c(Cl)cc23)C(C)C1
viability, T/C [1]: 96.7%
viability, T/C [2]: 87.7%
viability, T/C [3]: 24.6%
viability, T/C [4]: 20.6%
viability, T/C [5]: 25.6%
viability, T/C [6]: 39.1%
viability, T/C [7]: 106%
viability, T/C [8]: 87.8%
viability, T/C [9]: 24.2%
viability, T/C [10]: 22.8%
viability, T/C [11]: 25.5%
viability, T/C [12]: 39.8%
viability, T/C [13]: 99.4%
viability, T/C [14]: 94.3%
viability, T/C [15]: 21.5%
viability, T/C [16]: 22.2%
viability, T/C [17]: 25.2%
viability, T/C [18]: 37.3%
viability, T/C [19]: 97.4%
viability, T/C [20]: 89.1%
viability, T/C [21]: 27%
viability, T/C [22]: 20.1%
viability, T/C [23]: 27.3%
viability, T/C [24]: 40.2%
viability, T/C [25]: 107%
viability, T/C [26]: 76.4%
viability, T/C [27]: 25.3%
viability, T/C [28]: 18%
viability, T/C [29]: 34.6%
viability, T/C [30]: 44.1%
viability, T/C [31]: 106%
viability, T/C [32]: 86.4%
viability, T/C [33]: 27.3%
viability, T/C [34]: 23.4%
viability, T/C [35]: 35.1%
viability, T/C [36]: 45.5%

IC50 (second compound 0.00316 µM): 4140 nM
IC50 (second compound 0.01 µM): 4690 nM
IC50 (second compound 0.0316 µM): 5540 nM
IC50 (second compound 0.1 µM): 4920 nM
IC50 (second compound 0.316 µM): 4660 nM
IC50 (second compound 1 µM): 4540 nM
SMILES: CCC(CC)c1cc(NC2CCC(N)C2)n2nccc2n1 (centres undefined) + C=CC(=O)N1CCN(c2nc(OCC3CCCN3C)nc3c(F)c(-c4nc(N)cc(C)c4C(F)(F)F)c(Cl)cc23)C(C)C1
viability, T/C [1]: 99.6%
viability, T/C [2]: 100%
viability, T/C [3]: 104%
viability, T/C [4]: 95.2%
viability, T/C [5]: 64.2%
viability, T/C [6]: 3.95%
viability, T/C [7]: 102%
viability, T/C [8]: 108%
viability, T/C [9]: 106%
viability, T/C [10]: 102%
viability, T/C [11]: 73.5%
viability, T/C [12]: 5.05%
viability, T/C [13]: 100%
viability, T/C [14]: 115%
viability, T/C [15]: 100%
viability, T/C [16]: 103%
viability, T/C [17]: 92.5%
viability, T/C [18]: 5.29%
viability, T/C [19]: 102%
viability, T/C [20]: 113%
viability, T/C [21]: 102%
viability, T/C [22]: 107%
viability, T/C [23]: 79.1%
viability, T/C [24]: 3.6%
viability, T/C [25]: 97%
viability, T/C [26]: 97.2%
viability, T/C [27]: 104%
viability, T/C [28]: 109%
viability, T/C [29]: 73.3%
viability, T/C [30]: 4.47%
viability, T/C [31]: 107%
viability, T/C [32]: 105%
viability, T/C [33]: 95.8%
viability, T/C [34]: 102%
viability, T/C [35]: 70.5%
viability, T/C [36]: 5.01%
